The source made the active and inactive calls. Rule as the data show it, for most assays here: actives have a measured Kd and inactives only a lower limit.
What was measured:
[1] = target: Protein kinase C alpha type (Homo sapiens, UniProt P17252)
[2] = target: Insulin-like growth factor 1 receptor (Homo sapiens, UniProt P08069)
[3] = target: T1, Probable ATP-dependent RNA helicase DDX6 (Homo sapiens, UniProt P26196)
T1 sequence (P26196 whole entry): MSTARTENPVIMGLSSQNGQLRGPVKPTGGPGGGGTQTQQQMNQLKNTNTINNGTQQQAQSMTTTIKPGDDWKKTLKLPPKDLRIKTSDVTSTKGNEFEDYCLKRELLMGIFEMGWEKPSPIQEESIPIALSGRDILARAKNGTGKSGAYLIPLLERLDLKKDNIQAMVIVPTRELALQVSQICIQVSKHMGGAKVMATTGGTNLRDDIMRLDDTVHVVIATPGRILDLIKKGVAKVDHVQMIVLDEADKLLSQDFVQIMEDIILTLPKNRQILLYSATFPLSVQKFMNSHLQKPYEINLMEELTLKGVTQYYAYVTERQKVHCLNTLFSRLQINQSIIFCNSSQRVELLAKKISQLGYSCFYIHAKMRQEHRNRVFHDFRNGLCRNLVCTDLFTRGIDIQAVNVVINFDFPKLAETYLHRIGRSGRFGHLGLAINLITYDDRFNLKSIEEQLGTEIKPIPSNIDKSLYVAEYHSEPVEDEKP

[4] = target: Tyrosine-protein kinase SYK (Homo sapiens, UniProt P43405)
[5] = target: Mitotic checkpoint serine/threonine-protein kinase BUB1 (Homo sapiens, UniProt O43683)
[6] = target: Elongation factor Tu, mitochondrial (Homo sapiens, UniProt P49411)
[7] = target: T2, Serine/threonine-protein kinase TAO3 (Homo sapiens, UniProt Q9H2K8)
T2 sequence (Q9H2K8 whole entry): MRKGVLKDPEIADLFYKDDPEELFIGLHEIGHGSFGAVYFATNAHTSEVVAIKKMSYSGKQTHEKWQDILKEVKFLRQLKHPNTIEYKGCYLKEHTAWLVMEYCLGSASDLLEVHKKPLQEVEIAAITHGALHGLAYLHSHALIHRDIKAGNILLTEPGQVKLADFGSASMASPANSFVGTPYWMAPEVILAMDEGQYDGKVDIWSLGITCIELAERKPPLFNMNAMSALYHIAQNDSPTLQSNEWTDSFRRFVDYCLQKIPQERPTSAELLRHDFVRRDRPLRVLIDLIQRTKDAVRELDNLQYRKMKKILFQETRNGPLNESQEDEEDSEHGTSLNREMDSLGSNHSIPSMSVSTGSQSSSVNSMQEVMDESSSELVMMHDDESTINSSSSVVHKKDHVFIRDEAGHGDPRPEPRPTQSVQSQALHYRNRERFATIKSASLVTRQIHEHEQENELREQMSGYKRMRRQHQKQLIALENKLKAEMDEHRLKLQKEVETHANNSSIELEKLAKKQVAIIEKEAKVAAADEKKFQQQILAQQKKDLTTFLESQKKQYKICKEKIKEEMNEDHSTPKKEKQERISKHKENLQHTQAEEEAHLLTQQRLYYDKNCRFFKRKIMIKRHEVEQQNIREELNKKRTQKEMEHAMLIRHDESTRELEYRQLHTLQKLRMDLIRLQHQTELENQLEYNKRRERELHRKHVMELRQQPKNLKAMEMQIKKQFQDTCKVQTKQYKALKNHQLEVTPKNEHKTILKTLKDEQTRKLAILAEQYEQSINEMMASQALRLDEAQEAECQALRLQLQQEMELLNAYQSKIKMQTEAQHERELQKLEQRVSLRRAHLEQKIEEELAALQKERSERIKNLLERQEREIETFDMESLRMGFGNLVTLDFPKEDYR

[8] = target: T3, Peroxisomal acyl-coenzyme A oxidase 3 (Homo sapiens, UniProt O15254)
T3 sequence (O15254 whole entry): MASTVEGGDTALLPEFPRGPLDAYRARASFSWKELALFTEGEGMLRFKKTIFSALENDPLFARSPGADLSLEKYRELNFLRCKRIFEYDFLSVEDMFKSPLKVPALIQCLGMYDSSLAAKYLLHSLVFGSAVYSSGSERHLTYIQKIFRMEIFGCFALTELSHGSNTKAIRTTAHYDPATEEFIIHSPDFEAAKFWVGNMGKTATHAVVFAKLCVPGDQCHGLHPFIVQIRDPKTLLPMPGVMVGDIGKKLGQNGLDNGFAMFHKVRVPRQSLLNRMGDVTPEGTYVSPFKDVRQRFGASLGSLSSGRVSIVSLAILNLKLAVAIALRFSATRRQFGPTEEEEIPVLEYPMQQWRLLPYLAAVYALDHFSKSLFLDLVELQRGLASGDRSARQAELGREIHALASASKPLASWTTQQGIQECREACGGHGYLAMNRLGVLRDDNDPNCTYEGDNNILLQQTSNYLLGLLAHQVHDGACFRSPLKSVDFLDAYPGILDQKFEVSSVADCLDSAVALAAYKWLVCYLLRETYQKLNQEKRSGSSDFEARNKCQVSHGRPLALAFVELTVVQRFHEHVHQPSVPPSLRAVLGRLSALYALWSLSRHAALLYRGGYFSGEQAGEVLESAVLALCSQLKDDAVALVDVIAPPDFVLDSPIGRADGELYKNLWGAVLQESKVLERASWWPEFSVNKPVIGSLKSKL

LIM domain kinase 1 = LIM domain kinase 1 (Homo sapiens, UniProt P53667)
[9] = target: Serine/threonine-protein kinase PAK 4 (Homo sapiens, UniProt O96013)
[10] = target: cAMP-dependent protein kinase catalytic subunit gamma (Homo sapiens, UniProt P22612)
[11] = target: Serine/threonine-protein kinase N1 (Homo sapiens, UniProt Q16512)
Also: in the data inactive means no Kd found up to 30 µM.

Chain of Serine/threonine-protein kinase N1 (Q16512 whole entry): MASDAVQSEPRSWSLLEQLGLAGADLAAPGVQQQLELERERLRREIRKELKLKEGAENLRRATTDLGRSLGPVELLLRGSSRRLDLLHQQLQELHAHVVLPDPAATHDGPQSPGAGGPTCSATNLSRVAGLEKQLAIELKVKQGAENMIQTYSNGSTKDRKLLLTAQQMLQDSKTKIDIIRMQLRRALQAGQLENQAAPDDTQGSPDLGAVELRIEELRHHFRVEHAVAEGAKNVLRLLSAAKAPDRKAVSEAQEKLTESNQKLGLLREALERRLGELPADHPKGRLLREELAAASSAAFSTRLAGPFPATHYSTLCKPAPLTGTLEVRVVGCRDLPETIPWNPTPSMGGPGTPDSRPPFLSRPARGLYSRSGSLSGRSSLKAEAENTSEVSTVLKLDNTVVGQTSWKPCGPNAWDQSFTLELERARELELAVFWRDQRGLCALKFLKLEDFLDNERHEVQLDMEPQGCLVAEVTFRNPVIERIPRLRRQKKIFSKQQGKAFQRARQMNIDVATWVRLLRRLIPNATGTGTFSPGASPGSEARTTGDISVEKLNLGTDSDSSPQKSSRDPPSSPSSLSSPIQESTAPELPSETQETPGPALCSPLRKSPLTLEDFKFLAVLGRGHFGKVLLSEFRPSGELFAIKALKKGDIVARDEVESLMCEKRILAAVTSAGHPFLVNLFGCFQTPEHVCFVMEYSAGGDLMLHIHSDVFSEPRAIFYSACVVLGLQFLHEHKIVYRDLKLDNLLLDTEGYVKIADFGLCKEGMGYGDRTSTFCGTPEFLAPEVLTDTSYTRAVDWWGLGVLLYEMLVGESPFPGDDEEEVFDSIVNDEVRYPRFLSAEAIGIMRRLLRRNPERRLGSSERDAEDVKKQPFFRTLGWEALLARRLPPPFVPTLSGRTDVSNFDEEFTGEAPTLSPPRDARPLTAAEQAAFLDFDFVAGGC
Chain of cAMP-dependent protein kinase catalytic subunit gamma (P22612 whole entry): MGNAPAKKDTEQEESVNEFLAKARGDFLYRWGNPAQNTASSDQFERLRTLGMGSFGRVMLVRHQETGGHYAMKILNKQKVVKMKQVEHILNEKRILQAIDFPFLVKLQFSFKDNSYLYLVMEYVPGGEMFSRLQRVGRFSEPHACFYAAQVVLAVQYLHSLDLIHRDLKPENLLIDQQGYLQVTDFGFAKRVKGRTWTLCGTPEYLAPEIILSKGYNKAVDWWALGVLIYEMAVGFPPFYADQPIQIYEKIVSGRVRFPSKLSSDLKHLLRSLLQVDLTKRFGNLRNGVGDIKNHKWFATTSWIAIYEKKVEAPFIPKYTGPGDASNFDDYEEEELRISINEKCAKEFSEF
Chain of Insulin-like growth factor 1 receptor (P08069 31-736 limits assumed): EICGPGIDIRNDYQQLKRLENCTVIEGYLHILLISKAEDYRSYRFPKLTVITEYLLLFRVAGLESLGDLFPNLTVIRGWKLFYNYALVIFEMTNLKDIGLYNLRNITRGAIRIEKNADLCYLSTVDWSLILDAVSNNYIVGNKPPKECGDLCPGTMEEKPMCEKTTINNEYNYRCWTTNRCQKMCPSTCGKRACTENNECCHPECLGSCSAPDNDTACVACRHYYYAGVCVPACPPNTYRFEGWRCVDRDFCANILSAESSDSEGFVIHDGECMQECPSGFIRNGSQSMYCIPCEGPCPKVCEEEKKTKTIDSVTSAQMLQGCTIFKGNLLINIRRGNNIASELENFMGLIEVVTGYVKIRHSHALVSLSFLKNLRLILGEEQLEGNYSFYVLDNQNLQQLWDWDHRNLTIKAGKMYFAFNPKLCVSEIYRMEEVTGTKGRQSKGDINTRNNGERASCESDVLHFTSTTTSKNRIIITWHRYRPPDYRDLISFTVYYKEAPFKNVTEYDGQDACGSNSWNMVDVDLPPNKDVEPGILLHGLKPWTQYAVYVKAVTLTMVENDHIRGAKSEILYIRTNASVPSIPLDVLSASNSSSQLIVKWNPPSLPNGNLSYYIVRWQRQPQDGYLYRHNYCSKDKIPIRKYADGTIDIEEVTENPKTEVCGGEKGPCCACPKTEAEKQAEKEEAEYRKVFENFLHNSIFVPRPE
Chain of Insulin-like growth factor 1 receptor (P08069 741-1367 limits assumed): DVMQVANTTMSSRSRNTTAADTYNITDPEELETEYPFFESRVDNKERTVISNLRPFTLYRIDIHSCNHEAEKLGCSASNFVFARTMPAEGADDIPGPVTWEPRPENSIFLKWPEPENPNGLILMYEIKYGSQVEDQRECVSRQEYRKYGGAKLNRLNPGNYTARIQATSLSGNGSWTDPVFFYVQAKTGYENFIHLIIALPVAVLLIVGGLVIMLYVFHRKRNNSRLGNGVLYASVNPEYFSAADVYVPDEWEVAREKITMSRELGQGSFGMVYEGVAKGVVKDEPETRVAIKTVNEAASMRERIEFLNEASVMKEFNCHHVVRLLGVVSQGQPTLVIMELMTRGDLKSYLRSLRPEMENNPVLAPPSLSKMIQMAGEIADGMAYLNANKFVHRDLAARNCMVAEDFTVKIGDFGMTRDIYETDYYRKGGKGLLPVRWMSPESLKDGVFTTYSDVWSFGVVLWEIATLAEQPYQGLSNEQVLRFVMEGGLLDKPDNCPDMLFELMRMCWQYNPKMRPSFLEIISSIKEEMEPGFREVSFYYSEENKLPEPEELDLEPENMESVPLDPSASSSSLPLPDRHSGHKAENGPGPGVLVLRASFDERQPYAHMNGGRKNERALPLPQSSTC
Chain of Serine/threonine-protein kinase PAK 4 (O96013 whole entry): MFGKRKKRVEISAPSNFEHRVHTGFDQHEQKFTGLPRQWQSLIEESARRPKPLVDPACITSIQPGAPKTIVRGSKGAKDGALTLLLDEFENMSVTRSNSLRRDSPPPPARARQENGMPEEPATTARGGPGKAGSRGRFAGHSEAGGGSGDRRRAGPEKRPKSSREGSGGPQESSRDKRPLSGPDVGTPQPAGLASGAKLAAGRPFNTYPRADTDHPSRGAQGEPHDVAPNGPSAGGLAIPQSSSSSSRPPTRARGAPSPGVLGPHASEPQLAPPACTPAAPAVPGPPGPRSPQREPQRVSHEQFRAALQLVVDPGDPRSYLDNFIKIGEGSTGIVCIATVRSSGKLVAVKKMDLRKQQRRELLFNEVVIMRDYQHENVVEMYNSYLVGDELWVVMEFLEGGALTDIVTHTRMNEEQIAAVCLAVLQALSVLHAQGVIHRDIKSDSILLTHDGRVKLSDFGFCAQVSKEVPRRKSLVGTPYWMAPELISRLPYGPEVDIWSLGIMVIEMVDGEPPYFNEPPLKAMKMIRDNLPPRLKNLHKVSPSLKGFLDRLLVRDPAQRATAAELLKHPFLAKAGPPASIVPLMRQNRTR
Chain of LIM domain kinase 1 (P53667 whole entry, the tested form may be a part): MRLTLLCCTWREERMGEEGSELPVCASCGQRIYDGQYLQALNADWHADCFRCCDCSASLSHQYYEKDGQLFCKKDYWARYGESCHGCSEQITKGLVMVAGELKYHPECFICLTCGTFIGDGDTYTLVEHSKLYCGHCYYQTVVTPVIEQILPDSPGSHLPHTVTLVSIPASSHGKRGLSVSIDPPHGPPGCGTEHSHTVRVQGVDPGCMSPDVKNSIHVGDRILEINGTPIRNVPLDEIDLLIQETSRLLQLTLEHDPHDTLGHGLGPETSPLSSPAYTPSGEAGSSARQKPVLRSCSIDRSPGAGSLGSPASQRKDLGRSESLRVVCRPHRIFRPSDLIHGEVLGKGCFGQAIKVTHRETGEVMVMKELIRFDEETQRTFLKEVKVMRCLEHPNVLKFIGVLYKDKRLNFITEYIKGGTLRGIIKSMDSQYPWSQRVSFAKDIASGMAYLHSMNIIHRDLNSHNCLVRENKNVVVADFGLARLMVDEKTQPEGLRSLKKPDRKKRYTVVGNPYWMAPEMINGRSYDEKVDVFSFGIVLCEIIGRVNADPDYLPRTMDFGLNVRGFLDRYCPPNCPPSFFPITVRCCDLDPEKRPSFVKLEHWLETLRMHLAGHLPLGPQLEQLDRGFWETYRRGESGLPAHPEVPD

SMILES | Kd [1] | Kd [2] | Kd [3] | Kd [4] | Kd [5] | Kd [6] | Kd [7] | Kd [8] | Kd (LIM domain kinase 1) | Kd [9] | Kd [10] | Kd [11]
Cc1cc(-c2cc(O)ccc2Cl)cc2nnc(Nc3ccc(OCCN4CCCC4)cc3)nc12 | > 30 µM (inactive) | > 30 µM (inactive) | > 30 µM (inactive) | > 30 µM (inactive) | > 30 µM (inactive) | > 30 µM (inactive) | > 30 µM (inactive) | > 30 µM (inactive) | > 30 µM (inactive) | > 30 µM (inactive) | > 30 µM (inactive) | > 30 µM (inactive)
O=C(c1ccc(F)c(F)c1Nc1ccc(I)cc1F)N1CC(O)([C@@H]2CCCCN2)C1 [COBIMETINIB] | > 30 µM (inactive) | > 30 µM (inactive) | > 30 µM (inactive) | > 30 µM (inactive) | > 30 µM (inactive) | > 30 µM (inactive) | > 30 µM (inactive) | > 30 µM (inactive) | > 30 µM (inactive) | > 30 µM (inactive) | > 30 µM (inactive) | > 30 µM (inactive)
C[C@@H]1CN(Cc2ccc(F)cc2)[C@@H](C)CN1C(=O)c1cc2c(C(=O)C(=O)N(C)C)cn(C)c2cc1Cl [TALMAPIMOD] | > 30 µM (inactive) | > 30 µM (inactive) | > 30 µM (inactive) | > 30 µM (inactive) | > 30 µM (inactive) | > 30 µM (inactive) | > 30 µM (inactive) | > 30 µM (inactive) | > 30 µM (inactive) | > 30 µM (inactive) | > 30 µM (inactive) | > 30 µM (inactive)
CO[C@H]1C[C@@H]2CC[C@@H](C)[C@@](O)(O2)C(=O)C(=O)N2CCCC[C@H]2C(=O)O[C@H]([C@H](C)C[C@@H]2CC[C@@H](OCCO)[C@H](OC)C2)CC(=O)[C@H](C)/C=C(\C)[C@@H](O)[C@@H](OC)C(=O)[C@H](C)C[C@H](C)/C=C/C=C/C=C/1C [EVEROLIMUS] | > 30 µM (inactive) | > 30 µM (inactive) | > 30 µM (inactive) | > 30 µM (inactive) | > 30 µM (inactive) | > 30 µM (inactive) | > 30 µM (inactive) | > 30 µM (inactive) | > 30 µM (inactive) | > 30 µM (inactive) | > 30 µM (inactive) | > 30 µM (inactive)
CC(C)Nc1cc(-c2c[nH]c(C(=O)N[C@H](CO)c3cccc(Cl)c3)c2)c(Cl)cn1 [ULIXERTINIB] | > 30 µM (inactive) | > 30 µM (inactive) | > 30 µM (inactive) | > 30 µM (inactive) | > 30 µM (inactive) | > 30 µM (inactive) | > 30 µM (inactive) | > 30 µM (inactive) | > 30 µM (inactive) | > 30 µM (inactive) | > 30 µM (inactive) | > 30 µM (inactive)
Cc1ccc(-n2nc(C(C)(C)C)cc2NC(=O)NCc2cc(F)ccc2Oc2ccc3c(cnn3CCO)c2)cc1 [PEXMETINIB] | > 30 µM (inactive) | > 30 µM (inactive) | > 30 µM (inactive) | > 30 µM (inactive) | > 30 µM (inactive) | > 30 µM (inactive) | > 30 µM (inactive) | > 30 µM (inactive) | > 30 µM (inactive) | > 30 µM (inactive) | > 30 µM (inactive) | > 30 µM (inactive)

The next lines start with the values.

Kd [1] | Kd [2] | Kd [3] | Kd [4] | Kd [5] | Kd [6] | Kd [7] | Kd [8] | Kd (LIM domain kinase 1) | Kd [9] | Kd [10] | Kd [11] | SMILES
> 30 µM (inactive) | > 30 µM (inactive) | > 30 µM (inactive) | > 30 µM (inactive) | > 30 µM (inactive) | > 30 µM (inactive) | > 30 µM (inactive) | > 30 µM (inactive) | > 30 µM (inactive) | > 30 µM (inactive) | > 30 µM (inactive) | > 30 µM (inactive) | CNC(=O)CN1CCC(Oc2cc3c(Nc4cccc(Cl)c4F)ncnc3cc2OC)CC1 [SAPITINIB]
> 30 µM (inactive) | > 30 µM (inactive) | > 30 µM (inactive) | > 30 µM (inactive) | > 30 µM (inactive) | > 30 µM (inactive) | > 30 µM (inactive) | > 30 µM (inactive) | > 30 µM (inactive) | > 30 µM (inactive) | > 30 µM (inactive) | > 30 µM (inactive) | Cn1cc(-c2ccc(F)c(C(F)(F)F)c2)nc1C1CCN(c2ncnc3[nH]ncc23)CC1 [LY-2584702]
> 30 µM (inactive) | > 30 µM (inactive) | > 30 µM (inactive) | > 30 µM (inactive) | > 30 µM (inactive) | > 30 µM (inactive) | > 30 µM (inactive) | > 30 µM (inactive) | > 30 µM (inactive) | > 30 µM (inactive) | > 30 µM (inactive) | > 30 µM (inactive) | COc1cc2nccc(Oc3ccc(NC(=O)Nc4cc(C)on4)c(Cl)c3)c2cc1OC [TIVOZANIB]
> 30 µM (inactive) | > 30 µM (inactive) | > 30 µM (inactive) | > 30 µM (inactive) | > 30 µM (inactive) | > 30 µM (inactive) | > 30 µM (inactive) | > 30 µM (inactive) | > 30 µM (inactive) | > 30 µM (inactive) | > 30 µM (inactive) | > 30 µM (inactive) | Cc1ccc(NC(=O)c2ccc(CN3CC[C@H](N(C)C)C3)c(C(F)(F)F)c2)cc1Nc1nccc(-c2cncnc2)n1 [BAFETINIB]
> 30 µM (inactive) | > 30 µM (inactive) | > 30 µM (inactive) | > 30 µM (inactive) | > 30 µM (inactive) | > 30 µM (inactive) | > 30 µM (inactive) | > 30 µM (inactive) | > 30 µM (inactive) | > 30 µM (inactive) | > 30 µM (inactive) | > 30 µM (inactive) | COc1ccc(-c2ccc3c(N4CCOC[C@@H]4C)nc(N4CCOC[C@@H]4C)nc3n2)cc1CO [AZD-8055]
> 30 µM (inactive) | > 30 µM (inactive) | > 30 µM (inactive) | > 30 µM (inactive) | > 30 µM (inactive) | > 30 µM (inactive) | > 30 µM (inactive) | > 30 µM (inactive) | > 30 µM (inactive) | > 30 µM (inactive) | > 30 µM (inactive) | > 30 µM (inactive) | CNC(=O)c1ccc(-c2cnc3ncc(Cc4ccc5ncccc5c4)n3n2)cc1F [CAPMATINIB]

From ChEMBL document CHEMBL3991601, “The target landscape of clinical kinase drugs” (Science, 2017)
